According to patent US10323000B2, “Indole derivatives and their use in neurodegenerative diseases” (priority 2014, dated 2019):
Read-outs that look alike come from different tables or passages of the source.

What was measured:
[1] = target: P2X7 (IL-1β release from THP-1 cells) (Homo sapiens (Human), UniProt Q99572); assay: IL-1β release assay; type: cell-based
Protocol: IL-1β release assay: The activation of P2X7 by ATP leads to a fast transient activation of cells resulting in influx of Ca^2+ followed by conversion of pro-IL-1β to active IL-1β. The functional activity of P2X7 compounds was measured by the release of mature […] in the culture medium of THP-1 cells, detected by sandwich ELISA. […] THP-1 cells were harvested from the flask in 50 ml by centrifugation for 3 min at 100 g. The cells were resuspended to 2×10^5 cells/ml in medium supplemented with 0.5 μM PMA and incubated. The cells were washed and resuspended to 1.5×10^5 cells/ml in medium complemented with 10 ng/ml LPS, and the cells were primed for 4 h at 37° C., 5% CO2. After addition of 20 μL of prediluted test compounds, blank, standard and control reagents, cells were incubated for a further 20 min at 37° C. and stimulated with 0.8 mM BzATP for 30 minutes. The cells were centrifuged, supernatant was collected and the presence of mature IL-1β was detected using Dual human IL-1b kit following manufacturer's instruction. The tetrahydrobenzodiazepine analogs effectively modulated the activity of P2X7 in the cells as measured by the levels of pro-inflammatory cytokine IL-1β, which is released by the activation of P2X7 receptor.

human P2X7 receptor = human P2X7 receptor (Homo sapiens (Human), UniProt Q99572); assay: Pore permeation assay (YO PRO dye uptake); type: cell-based
[2] = THP-1 cells, LPS primed, 0.8 mM BzATP, mature IL-1β by sandwich ELISA, read-out: hTHP-1/IL-ib IC50
[3] = HEK293 transfected with human P2X7, BzATP 10 uM, YO PRO dye uptake, read-out: hP2X7 IC50

Chain of P2X7 (IL-1β release from THP-1 cells) (Q99572 whole entry): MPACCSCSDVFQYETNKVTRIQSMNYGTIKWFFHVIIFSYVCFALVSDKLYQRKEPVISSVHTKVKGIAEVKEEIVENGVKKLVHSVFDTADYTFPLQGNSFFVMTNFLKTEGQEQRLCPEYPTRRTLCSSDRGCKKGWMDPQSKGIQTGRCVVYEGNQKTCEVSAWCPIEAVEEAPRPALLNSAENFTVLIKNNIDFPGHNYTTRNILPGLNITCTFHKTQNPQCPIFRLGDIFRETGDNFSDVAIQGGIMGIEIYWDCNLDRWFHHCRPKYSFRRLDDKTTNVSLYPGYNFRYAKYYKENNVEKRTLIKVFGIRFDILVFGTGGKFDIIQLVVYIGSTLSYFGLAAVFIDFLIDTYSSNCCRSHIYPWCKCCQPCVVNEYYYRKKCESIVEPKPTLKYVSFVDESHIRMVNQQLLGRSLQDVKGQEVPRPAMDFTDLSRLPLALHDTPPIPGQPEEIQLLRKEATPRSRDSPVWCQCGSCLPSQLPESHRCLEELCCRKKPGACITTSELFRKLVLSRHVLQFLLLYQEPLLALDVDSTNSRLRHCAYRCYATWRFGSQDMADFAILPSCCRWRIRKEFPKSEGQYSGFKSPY
Chain of human P2X7 receptor (Q99572 whole entry): as above

SMILES	IC50 [1] [nM]	IC50 (human P2X7 receptor) [nM]	IC50 [1, 2] [nM]	IC50 (human P2X7 receptor; [3]) [nM]
O=C(NCC1CCC(F)(F)CC1)c1cn(CC(F)(F)F)c2cccc(Cl)c12 [Compound 5, 4-chloro-N-((4,4-difluorocyclohexyl)methyl)-1-(2,2,2-trifluoroethyl)-1H-indole-3-carboxamide]	101 to 500	10 to 100		
NCCn1cc(C(=O)NCC2CCC(F)(F)CC2)c2c(Cl)cccc21 [Compound 6, 1-(2-aminoethyl)-4-chloro-N-((4,4-difluorocyclo-hexyl)methyl)-1H-indole-3-carboxamide]	10 to 100	101 to 500		
O=C(NCC1CCC(F)(F)CC1)c1cn(C[C@H]2CCCO2)c2cccc(Cl)c12 [Compound 135, (R)-4-chloro-N-((4,4-difluorocyclohexyl)methyl)-1-((tetrahydrofuran-2-yl)methyl)-1H-indole-3-carboxamide]	10 to 100	10 to 100		
O=C(NCC1CCC(F)(F)CC1)c1cn(CC2CCCO2)c2cccc(Cl)c12 (stereo not shown) [Compound 144, 4-chloro-N-((4,4-difluorocyclohexyl)methyl)-1-((tetrahydrofuran-2-yl)methyl)-1H-indole-3-carboxamide]	101 to 500	10 to 100		
O=C(NCC1CCC(F)(F)CC1)c1cn(C[C@H]2CCN2)c2cccc(Cl)c12 [Compound 123, (R)-1-(azetidin-2-ylmethyl)-4-chloro-N-((4,4-difluorocyclohexyl)methyl)-1H-indole-3-carboxamide]	101 to 500	101 to 500		
O=C(NCC1(O)CCC(F)(F)CC1)c1cn(CCC(F)(F)F)c2cccc(Cl)c12 [Compound 12, 4-chloro-N-((4,4-difluoro-1-hydroxycyclohexyl)methyl)-1-(3,3,3-trifluoropropyl)-1H-indole-3-carboxamide]	500 to 999	101 to 500		
O=C(NCC1CCC(F)(F)CC1)c1cn(CCO)c2cccc(C(F)(F)F)c12 [Compound 198, N-((4,4-difluorocyclohexyl)methyl)-1-(2-hydroxyethyl)-4-(trifluoromethyl)-1H-indole-3-carboxamide]	10 to 100	101 to 500		
O=C(NCC1CCC(F)(F)CC1)c1cn(C[C@H]2CCCN2)c2cccc(Cl)c12 [Compound 154, (R)-4-chloro-N-((4,4-difluorocyclohexyl)methyl)-1-(pyrrolidin-2-ylmethyl)-1H-indole-3-carboxamide]	10 to 100	10 to 100		
C[C@@H]1CCC[C@](O)(CNC(=O)c2cn(CC3CCCO3)c3cccc(Cl)c23)C1 (stereo partly drawn) [Compound 143, 4-chloro-N-(((1R,3R)-1-hydroxy-3-methylcyclohexyl)methyl)-1-((tetrahydrofuran-2-yl)methyl)-1H-indole-3-carboxamide]	101 to 500	10 to 100		
COCCn1cc(C(=O)NCC2CCC(F)(F)CC2)c2c(Cl)cccc21 [Compound 41, 4-chloro-N-((4,4-difluorocyclohexyl)methyl)-1-(2-methoxyethyl)-1H-indole-3-carboxamide]		10 to 100	< 10	
O=C(NCC1(O)CCCC(F)(F)C1)c1cn(CCN2CCCC2=O)c2cccc(Cl)c12 (stereo not shown) [Compound 188, 4-chloro-N-((3,3-difluoro-1-hydroxycyclohexyl)methyl)-1-(2-(2-oxopyrrolidin-1-yl)ethyl)-1H-indole-3-carboxamide]	10 to 100	10 to 100		
O=C(NCC1CCCC(F)(F)C1)c1cn(C2COC2)c2cccc(Cl)c12 (racemic) [Compound 69, 4-chloro-N-((3,3-difluorocyclohexyl)methyl)-1-(oxetan-3-yl)-1H-indole-3-carboxamide]	101 to 500	10 to 100		
O=C(NCC1CCC(F)(F)CC1)c1cn(CC2(O)CC2)c2cccc(Cl)c12 [Compound 117, 4-chloro-N-((4,4-difluorocyclohexyl)methyl)-1-((1-hydroxycyclopropyl)methyl)-1H-indole-3-carboxamide]	101 to 500	10 to 100		
O=C(NCC1CCC(F)(F)CC1)c1cn(CC2CCOCC2)c2cccc(Cl)c12 [Compound 168, 4-chloro-N-((4,4-difluorocyclohexyl)methyl)-1-((tetrahydro-2H-pyran-4-yl)methyl)-1H-indole-3-carboxamide]	101 to 500	10 to 100		
O=C(NC[C@@H]1CCCC[C@H]1O)c1cn(C2COC2)c2cccc(Cl)c12 [Compound 87]		101 to 500	> 1000	
O=C(NCC1CCCCC1)c1cn(C2CCOC2)c2cccc(Cl)c12 (stereo not shown) [Compound 101, 4-chloro-N-(cyclohexylmethyl)-1-(tetrahydrofuran-3-yl)-1H-indole-3-carboxamide]	500 to 999	101 to 500		
O=C(NCC1CCC(F)(F)CC1)c1cn(CCOC2CC2)c2cccc(Cl)c12 [Compound 149, 4-chloro-1-(2-cyclopropoxyethyl)-N-((4,4-difluorocyclohexyl)methyl)-1H-indole-3-carboxamide]	101 to 500	10 to 100		
O=C(NCC1CCCOC1)c1cn(C2COC2)c2cccc(Cl)c12 (stereo not shown) [Compound 74, 4,4-Chloro-1-oxetan-3-yl-1H-indole-3-carboxylic acid (tetrahydro-pyran-3-ylmethyl)-amide]			> 1000	> 1000
O=C(NCC1CCC(F)(F)CC1)c1cn(CC(=O)N2CCCCC2)c2cccc(Cl)c12 [Compound 195, 4-Chloro-1-(2-oxo-2-piperidin-1-yl-ethyl)-1H-indole-3-carboxylic acid (4,4-difluoro-cyclohexylmethyl)-amide]	101 to 500	10 to 100		
CC(C)OCCn1cc(C(=O)NCC2CCC(F)(F)CC2)c2c(Cl)cccc21 [Compound 128]	101 to 500	101 to 500		
CN1C(=O)CC[C@@H]1Cn1cc(C(=O)NCC2CCC(F)(F)CC2)c2c(Cl)cccc21 [Compound 182, (R)-4-chloro-N-((4,4-difluorocyclohexyl)methyl)-1-((1-methyl-5-oxopyrrolidin-2-yl)methyl)-1H-indole-3-carboxamide]	10 to 100	10 to 100		
O=C(NCC1CCC(F)(F)CC1)c1cn(CC2CCCCO2)c2cccc(Cl)c12 (stereo not shown) [Compound 167, 4-chloro-N-((4,4-difluorocyclohexyl)methyl)-1-((tetrahydro-2H-pyran-2-yl)methyl)-1H-indole-3-carboxamide]	10 to 100	10 to 100		
COCCn1cc(C(=O)NC[C@]2(O)CCCC(F)(F)C2)c2c(Cl)cccc21 [Compound 20, (S)-4-chloro-N-((3,3-difluoro-1-hydroxycyclohexyl)methyl)-1-(2-methoxyethyl)-1H-indole-3-carboxamide]	101 to 500	10 to 100		
O=C(NCC1CCC(F)(F)CC1)c1cn(CCC(F)(F)F)c2cccc(Cl)c12 [Compound 13, 4-chloro-N-((4,4-difluorocyclohexyl)methyl)-1-(3,3,3-trifluoropropyl)-1H-indole-3-carboxamide]	10 to 100	10 to 100		
COCCn1cc(C(=O)NCC2(O)CCCCC2O)c2c(Cl)cccc21 (stereo not shown) [Compound 18, 4-Chloro-1-(2-methoxy-ethyl)-1H-indole-3-carboxylic acid (1,2-dihydroxy-cyclohexylmethyl)-amide]			> 1000	> 1000
O=C(NCC1(O)CCCC(F)(F)C1)c1cn(C2COC2)c2cccc(Cl)c12 (racemic) [Compound 86, 4-chloro-N-((3,3-difluoro-1-hydroxycyclohexyl)methyl)-1-(oxetan-3-yl)-1H-indole-3-carboxamide]	10 to 100	10 to 100		
